Laboratory results reported in patent US10369185B2, “Methods and compositions for enhancement of ability to concentrate” (KYOWA HAKKO BIO CO., LTD., priority 2014, dated 2019).
Entries after “also recorded” stand apart in the source; their conditions may differ. Peptide text beside a SMILES is read from it.

Legend:
male runners = assay: Multiple object tracking (CAVE, NeuroTracker); format: in vivo, human; settings: for NeuroTracker Δ, group mean: Post-Pre
Protocol: The testing protocol is depicted in FIG. 1. Data collection occurred on four separate occasions. Each session required participants to perform a 60-min run at 75% of their previously measured VO2max. Following this run, all participants performed a run at 90% of their VO2max until volitional exhaustion. All participants performed their first trial (DHY) without any rehydration. During this session the total weight lost during the trial was determined. The fluid loss that occurred during this session was then used to determine the participant's swear rate (L·hr^−1). To continue in the study, participant's sweat rate was or exceeded 1.3 L·hr^−1. During the next three trails participants were provided 250 ml of fluid every 15 minutes in equal amounts. During one of the trials participants consumed only a flavored sports drink (ELECT only), while during the other trials participants consumed the alanine-glutamine supplement (Sustamine™) mixed in the same flavored sports drink at either a low (LD: 300 mg per 500 ml) or high (HD: 1 g per 500 ml) dose. Visual optical tracking was assessed using a Cave Automatic Virtual Environment (CAVE) system. The CAVE is a 2.4 m×2.4 m×2.4 m room that includes a frontal canvas projection wall which served as surfaces for image projection. Four high-resolution projectors were synchronized, and the image was projected onto the front screen. Participants tracked 4 of 8 objects that moved in a three-dimensional plane. Velocity of movement began at a slow tracking speed and progressed on the performance of the individual participant. Each participant performed 10 trials. During each trial participants wore 3-dimensional glasses. The velocity of movement that was most successful was recorded. Additionally, to make inferences on true effects of the different trials on reaction performance, an analysis based on the magnitude of differences, calculated from 90% confidence intervals, as previously described by Batterham and Hopkins (2005), was used in this study. Differences in Post-Pre performance (Δresponse) between trials were analyzed via a published spreadsheet (Hopkins 2007), with the smallest non-trivial change set at 20% of the grand standard deviation (Batterham and Hopkins 2005). All data are expressed as a mean effect±SD, with percent chances of a beneficial, trivial or negative outcome. Qualitative inferences, based on quantitative chances were assessed as: <1% almost certainly not, 1-5% very unlikely, 5-25% unlikely, 25-75% possibly, 75-95% likely, 95-99% very likely and >99% almost certainly (Hopkins 2002).

[1] = Blood measures during the 60-min run (plasma lactate, glucose, osmolality, potassium, sodium, glutamine); format: in vivo, human; settings: at 45-min; HD compared with LD
Protocol: During each experimental session baseline (BL) blood samples were obtained at preexercise. Additional blood samples were also obtained following 30 min, 45 min and 60 min during the exercise session. All blood samples were obtained using a 20-gauge Teflon cannula placed in a superficial forearm vein using a 3-way stopcock with a male luer lock adapter. The cannula was maintained patent using an isotonic saline solution. BL blood samples were drawn following a 15-min equilibration period prior to exercise. Blood samples were obtained at the same time of day during each session.
Blood samples were drawn into plain or EDTA treated tubes. Blood samples will be analyzed in triplicate for hematocrit via microcapillary technique and hemoglobin. […]
Plasma glucose and lactate concentrations were determined in duplicate with an automated analyzer (Analox GM7 enzymatic metabolite analyzer, Analox Instruments USA, Lunenburg, Mass.). Plasma glutamine was analyzed with the use of a spectrophotometer and a commercially available enzymatic kit (Abnova, Jhongli City, Taiwan) per manufacturer's instructions. Serum immunoreactivity values were determined using a BioTekEon spectrophotometer (BioTek, Winooski, Vt., USA). Plasma sodium and potassium concentrations were assessed via ion-selective electrodes (EasyElectrolyte, Medica, Bedford, Mass.). […]

[2] = alanylglutamine compared to glutamine; cited from earlier work
[3] = in vivo; cited from earlier work

plasma glutamine concentrations [1]: significant difference
Compound: C[C@H](N)C(=O)N[C@@H](CCC(N)=O)C(=O)O [L-Alanyl-L-Glutamine] (H-Ala-Gln-OH)
NeuroTracker Δ, Interpretation (male runners; Dehydration vs High Dose): Unclear | NeuroTracker Δ, Mean Difference (male runners; Dehydration vs High Dose): −0.06 | NeuroTracker Δ, Percent Negative (male runners; Dehydration vs High Dose): 37.20% | NeuroTracker Δ, Percent Positive (male runners; Dehydration vs High Dose): 12.32% | NeuroTracker Δ, Percent Trivial (male runners; Dehydration vs High Dose): 50.47% | NeuroTracker Δ, Interpretation (male runners; Dehydration vs Low Dose): Unclear | NeuroTracker Δ, Mean Difference (male runners; Dehydration vs Low Dose): 0.008 | NeuroTracker Δ, Percent Negative (male runners; Dehydration vs Low Dose): 21.19% | NeuroTracker Δ, Percent Positive (male runners; Dehydration vs Low Dose): 24.48% | NeuroTracker Δ, Percent Trivial (male runners; Dehydration vs Low Dose): 54.33% | NeuroTracker Δ, Interpretation (male runners; Gatorade vs High Dose): likely maintain or improve their scores more so than when they consumed the electrolyte drink only; also recorded: Likely | NeuroTracker Δ, Mean Difference (male runners; Gatorade vs High Dose): −0.23 | NeuroTracker Δ, Percent Negative (male runners; Gatorade vs High Dose): 85.10% | NeuroTracker Δ, Percent Positive (male runners; Gatorade vs High Dose): 0.44% | NeuroTracker Δ, Percent Trivial (male runners; Gatorade vs High Dose): 14.46% | NeuroTracker Δ, group mean (male runners; High Dose (1 g per 500 ml)): 0.201 | NeuroTracker Δ, group mean (male runners; Low Dose (300 mg per 500 ml)): 0.132 | NeuroTracker Δ, Interpretation (male runners; Low Dose vs Gatorade): Possibly | NeuroTracker Δ, Mean Difference (male runners; Low Dose vs Gatorade): 0.17 | NeuroTracker Δ, Percent Negative (male runners; Low Dose vs Gatorade): 4.42% | NeuroTracker Δ, Percent Positive (male runners; Low Dose vs Gatorade): 64.40% | NeuroTracker Δ, Percent Trivial (male runners; Low Dose vs Gatorade): 31.18% | NeuroTracker Δ, Interpretation (male runners; Low Dose vs High Dose): Possibly | NeuroTracker Δ, Mean Difference (male runners; Low Dose vs High Dose): 0.069 | NeuroTracker Δ, Percent Negative (male runners; Low Dose vs High Dose): 26.72% | NeuroTracker Δ, Percent Positive (male runners; Low Dose vs High Dose): 0.45% | NeuroTracker Δ, Percent Trivial (male runners; Low Dose vs High Dose): 72.83% | changes in multiple object tracking (male runners; between trials): No significant differences were noted between trials | solubility in aqueous solutions [2]: superior | stability (heat stability) [2]: superior | degradation in the body [3]: immediately degraded into alanine and glutamine in the body
